In US5618665A, “Enzymatic fluorometric assay for adenylate cyclase” (Regents of the University of Minnesota, priority 1994, dated 1997):

Legend:
adenylate cyclase [1] = test: Effect of theophylline on basal and isoproterenol-stimulated adenylate cyclase activity; format: biochemical; conditions: for Isoproterenol Stimulated adenylate cyclase activity / Fold Increase, isoproterenol stimulated: isoproterenol 10^-6 M; for Isoproterenol Stimulated adenylate cyclase activity / Basal (no isoproterenol) adenylate cyclase activity: n = 5; for Fold Increase, isoproterenol stimulated / Fold Increase, basal (no isoproterenol): vs control
Text: To investigate the effects of theophylline on basal adenylate cyclase activity, increasing concentrations of theophylline were studied (Table 2).

adenylate cyclase [2] = test: Adenylate cyclase activity of rabbit cardiac membranes by enzymatic fluorometric assay (ATP-ADP cycling), radioimmunoassay and Salomon's method; format: biochemical; conditions: isoproterenol 10^-7 and 10^-6 M; NaF 10^-2 M; GppNHp 10^-4 M; carbachol 10^-6 M; adenosine 10^-3 M; three methods
Experimental: Adenylate cyclase activities of six different rabbit cardiac membranes under basal and drug treated conditions were assessed using the fluorometric method of the present invention, radioimmunoassay and original [alpha-^32 P] ATP method developed by Salomon. The first part of the non-radioactive fluorescent technique for measuring adenylate cyclase activity is similar to the method described in Example 2 except that 3-isobutyl-1-methylxanthine (IBMX), rather than theophylline, was used to inhibit phosphodiesterase activity. Furthermore, a series of ATP-ADP enzyme-cycling reactions was used to amplify the cAMP signal, rather then the AMP stimulation of glycogen phosphorylase a utilized in previous examples. Use of the ATP-ADP enzymatic cycling amplification step can lengthen the assay duration, depending upon the desired assay sensitivity.
A volume of 1.0 μl of either H2 O, isoproterenol, NaF, guanylyl-5'-imidodiphosphate (GppNHp), carbachol, and adenosine was added to each of six reaction tubes on ice. Next, 25 μl of cyclase mix (100 mM Tris-acetate, pH 7.4; 4.2 mM KCl; 10 mM MgCl2; 20 mM phosphoenolpyruvate; 2 mM ATP; 20 μM GTP; 2 mM dithiothreitol; 0.04% bovine serum albumin; 0.2 mM 3-isobutyl-1-methylxanthine (IBMX); 100 μg/ml pyruvate kinase) was added to each reaction tube. The stored membrane was diluted with SET buffer in a concentration of 1.5 mg of protein/ml. Finally, 25 μl of membrane suspension, which contained 37.5 μg of protein, was added to each tube, and the reaction was initiated by placing the tubes in a water bath maintained at 37° C. After 30 minutes, the reaction was terminated by heating at 90° C. for 5 minutes. […] Then, 25 μl of cyclase mix and 25 μl of boiled membrane preparation were added to each tube. After 30 minutes, the reaction was terminated by heating at 90° C. for 5 minutes.
A volume of 5 μl of reaction of product from Part A was transferred to Pyrex® tubes. For external cAMP standard, a same volume of known amount of cAMP was also added to assay tubes. Newly synthesized cAMP was measured using the following enzymatic fluorometric assay.
1. A volume of 25 μl of "cleaning" reaction mix (100 mM Tris HCl, pH 8.0; 2 mM MgCl2; 2 units/ml apyrase; 2.5 units/ml 5'-nucleotidase; 50 μg/ml adenosine deaminase; 20 units/ml alkaline phosphatase) was added to each assay tube. The mixture was incubated at 37° C. for 30 minutes. Enzymes were then destroyed by heating for 10 minutes at 90° C.
2. A volume of 25 μl of a phosphodiesterase-containing reaction mix (100 mM Tris-HCl pH 8.0; 2 mM MgCl2; 0.01% bovine serum albumin; 60 μg/m; phosphodiesterase) was added to each assay tube from Step 1. After 60 minutes at 37° C., the assay tubes were heated at 90° C. for 5 minutes.
3. A volume of 25 μl of myokinase reaction mix (100 mM Tris-HCl, pH 8.0; 2 mM MgCl2; 225 mM KCl; 200 nM ATP; 8 mM phosphoenolpyruvate; 2 mM dithiothreitol; 0.01% bovine serum albumin; 24 μg/ml myokinase; 50 μg/ml pyruvate kinase) was added to the assay tubes from Step 2. The reactions were incubated at 37° C. for 2 hours.
4. […]
5. […] After 15 minutes at room temperature, the final concentration of NADPH was measured using a fluorometer (Optical Technology Devices, Inc., New York). The fluorometer was set such that a reading of 1 fluorometric unit was equivalent to 100 pmol of NADPH in 900 μl of buffer (50 mM Tris-HCl, pH 8.0). […]

adenylate cyclase [3] = test: Fluorometric (non-radioactive) adenylate cyclase assay, rabbit ventricular membranes; format: biochemical, rabbit (New Zealand white); conditions: NaF 10^-2 M; for Agonist-stimulated adenylate cyclase activity, fluorescent assay: Iso 10^-6 M, GppNHp 10^-4 M, n = 5; for stimulated activity, reduced assay volume: membrane suspension reduced from 25 μl to 5 μl, isoproterenol 10^-6 M
Experimental: (§1) Ventricular membrane preparations were prepared from five male New Zealand white rabbits (weight 2.4 kg; W.O.R.K., Philomith, Oreg.) sacrificed by cervical concussion and immediate incision of the heart as previously described. Briefly, hearts were placed in ice-cold SET buffer (0.25M sucrose, 0.1 mM EDTA, 5.0 mM Tris HCl, pH 7.4). Portions (1-2 g) from the ventricular apex were minced and then homogenized in ice-cold SET buffer (1/10, w/v). The homogenate was filtered through a Nitex filter (three layers) (Tetko, Los Angeles, Calif.) and then centrifuged for 20 min. at 1000×g. The pellet was resuspended and centrifuged three more times. The final pellet was resuspended in SET buffer (1.5 mg protein/ml) and stored at -70° C. until enzyme activity was measured.
A volume of 1.0 μl of either H2 O, NaF, guanylyl -5'-imidodiphosphate (GppNHp), isoproterenol, or isoproterenol+GppNHp was added to each of five reaction tubes and maintained at 0° C. Next, 25 μl of reaction mixture B (tris Acetate 100 mM, pH 7.4; KCl 20 mM; MgCl2 10.0 mM; phosphoenolpyruvate 20 mM; ATP 2.0 mM; GTP 0.02 mM; dithiothreitol 2.0 mM; bovine serum albumin 0.04%; theophylline 0.2 mM; pyruvate kinase 1.0 mg/ml) were added to each reaction tube. Finally, 25 μl of membrane suspension (40 to 45 μg protein) were added to each tube and the reaction was initiated by placing the tubes in a water bath at 37° C. After 30 minutes at 37° C., the reaction was stopped by the addition of 50 μl of 50 mM NaOH. The reaction mixture was heated for 5 minutes at 95° C.
1. A volume of 20-40 μl of reaction product from Part A was added to 100 μl of cleaning reaction mix (Tris-HCl 50 mM, pH 8.0; MgCl2 5 mM; CaCl2, 2 mM; 5'-nucleotidase 0.025 units/ml; apyrase 0.02 units/ml; adenosine deaminase 0.1 mg/ml). After 30 minutes at 37° C., the reaction was terminated by heating it at 95° C. for 5 minutes.
2. […] After 60 minutes at 37° C., 600 μl of 2-amino-2-methyl-1-propanol (AMP2) 50 mM, pH 9.9 was added to the reaction mix and the final concentration of NADPH was measured fluorometrically.
Although the basal activity is nearly 3 times higher in the nonradioactive method, the "fold" stimulation is similar for both receptor-mediated agonists (isoproterenol±GppNHp) as well by NaF, which directly stimulates adenylate cyclase.
The non-radioactive assay of Example 2 is at least 5 times more sensitive than the modified Salomon radioactive assay of Example 1. In Table 3, 5 μl of membrane preparation were used to measure adenylate cyclase activity in the non-radioactivity assay compared to 25 μl with the radioactive preparations. In a separate experiment, the volume of membrane suspension was reduced from 25 μl to 5 μl. By proportionally reducing the assay volume size, no difference in basal (58.4±3.9), isoproterenol (10^-6 M) (128±7.6) or NaF (10^-2 M) (331.9±42.8) stimulated activity was observed when results were compared to larger assay volumes present. EXAMPLE 5.

adenylate cyclase [4] = test: Radioactive adenylate cyclase assay (modified Salomon, alpha-32P-ATP), rabbit ventricular membranes; format: biochemical, rabbit (New Zealand white); conditions: Iso 10^-6 M; GppNHp 10^-4 M; NaF 10^-2 M; n = 5
Experimental: as §1
A volume of 1.0 μl of either H2 O, NaF, guanylyl-5'-imidodiphosphate (GppNHp), isoproterenol, or isoproterenol+GppNHp were added to each of five reaction tubes and maintained at 0° C. […] Finally 25 μl of membrane suspension ([…]) were added to each tube and the reaction was initiated by placing the tubes in a water bath at 37° C. After 30 minutes, the reaction was terminated by the addition of 300 μl of a stopping solution which contained 0.34 HCl and ^3 H-cAMP, 10,000-20,000 cpm.
To generate the graph depicted in FIG. 2, 250 μl portions of reaction mixture A and membrane were used and 50 μl samples were removed from the 37° C. bath every 10 minutes, and stopped with 300 μl stopping solution. The assay tubes were heated at 95° C. for 5 minutes. ^32 P-cAMP was isolated using Dowex-alumina chromatography. Recovery, as assessed by ^3 H-cAMP, was 80-95%. All assays were conducted in triplicate. The time course of adenylate cyclase activity (n=5 different rabbit ventricular membrane preparations) is depicted in FIG. 1. Basal AC and agonist stimulated (0.1 mM GppNHp, 0.1 mM) AC are compared. The activity shown is (isoproterenol+GppNHp-stimulated AC activity) minus (GppNHp-stimulated activity). […]

glycogen phosphorylase a = test: Removal of AMP by the cleaning reactions (glycogen phosphorylase a activity, NADPH fluorescence); format: biochemical; conditions: 25° C.
Experimental: AMP was incubated for 60 min at 37° C. with 50 μl of either buffer (100 mM Tris-HCl, pH 8.0) or a cleaning reaction mixture containing 100 mM Tris-HCl, pH 8.0; 5 mM MgCl2. 2 mM CaCl2, 0.02 units/ml apyrase; 0.025 units/ml 5'-nucleotidase and 0.1 mg/ml adenosine deaminase.

Cn1c(=O)c2[nH]cnc2n(C)c1=O [theophylline]
Isoproterenol Stimulated adenylate cyclase activity (adenylate cyclase [1]; theophylline 10 μM): 85.58 ± 5.56 pmol/mg/min
Fold Increase, isoproterenol stimulated (adenylate cyclase [1]; theophylline 10 μM): 1.65 fold
Basal (no isoproterenol) adenylate cyclase activity (adenylate cyclase [1]; theophylline 10 μM): 44.72 ± 4.61 pmol/mg/min
Fold Increase, basal (no isoproterenol) (adenylate cyclase [1]; theophylline 10 μM): 1.46 fold
Isoproterenol Stimulated adenylate cyclase activity (adenylate cyclase [1]; theophylline 50 μM): 93.02 ± 3.55 pmol/mg/min
Fold Increase, isoproterenol stimulated (adenylate cyclase [1]; theophylline 50 μM): 1.80 fold
Basal (no isoproterenol) adenylate cyclase activity (adenylate cyclase [1]; theophylline 50 μM): 44.63 ± 5.93 pmol/mg/min
Fold Increase, basal (no isoproterenol) (adenylate cyclase [1]; theophylline 50 μM): 1.46 fold
Isoproterenol Stimulated adenylate cyclase activity (adenylate cyclase [1]; theophylline 100 μM): 104.21 ± 3.50 pmol/mg/min
Fold Increase, isoproterenol stimulated (adenylate cyclase [1]; theophylline 100 μM): 2.01 fold
Basal (no isoproterenol) adenylate cyclase activity (adenylate cyclase [1]; theophylline 100 μM): 59.94 ± 3.63 pmol/mg/min
Fold Increase, basal (no isoproterenol) (adenylate cyclase [1]; theophylline 100 μM): 1.91 fold
Isoproterenol Stimulated adenylate cyclase activity (adenylate cyclase [1]; theophylline 500 μM): 102.67 ± 2.86 pmol/mg/min
Fold Increase, isoproterenol stimulated (adenylate cyclase [1]; theophylline 500 μM): 1.98 fold
Basal (no isoproterenol) adenylate cyclase activity (adenylate cyclase [1]; theophylline 500 μM): 53.82 ± 4.37 pmol/mg/min
Fold Increase, basal (no isoproterenol) (adenylate cyclase [1]; theophylline 500 μM): 1.75 fold
basal activity is increased (adenylate cyclase [1]; theophylline 100-500 μM): approximately 100%
increase in basal activity (adenylate cyclase [1]; theophylline > 100 μM): no significant increase in basal activity was observed

C[N+](C)(C)CCOC(N)=O [carbachol]
effect on cAMP production (adenylate cyclase [2]): inhibited

[F-].[Na+] [NaF, Sodium Fluoride]
Agonist-stimulated adenylate cyclase activity, fluorescent assay (adenylate cyclase [3]): 346.7 ± 15.9 pmoles of cAMP/mg/min
stimulated activity, reduced assay volume (adenylate cyclase [3]): 331.9±42.8
effect on cAMP production (adenylate cyclase [2]): increased production
Agonist-stimulated adenylate cyclase activity, radioactive assay (adenylate cyclase [4]): 106.2 ± 3.5 pmoles of cAMP/mg/min

CC(C)NCC(O)c1ccc(O)c(O)c1 (centres unmarked) [isoproterenol]
Agonist-stimulated adenylate cyclase activity, fluorescent assay (adenylate cyclase [3]): 110.0 ± 3.3 pmoles of cAMP/mg/min
stimulated activity, reduced assay volume (adenylate cyclase [3]): 128±7.6
effect on cAMP production (adenylate cyclase [2]): increased cAMP production, in a concentration-dependent manner
Agonist-stimulated adenylate cyclase activity, radioactive assay (adenylate cyclase [4]): 38.3 ± 2.3 pmoles of cAMP/mg/min
"fold" stimulation (agonist-stimulated activity/basal activity) of adenylate cyclase activity (adenylate cyclase [1]; at a given concentration of isoproterenol, in the presence of theophylline): constant
Isoproterenol Stimulated adenylate cyclase activity (adenylate cyclase [1]; control (no theophylline)): 51.73 ± 10.47 pmol/mg/min

adenosine 2'- and 3'-monophosphate [AMP]
glycogen phosphorylase a activity (glycogen phosphorylase a; in the presence of the cleaning reaction mixture): remains similar to the control buffer values
glycogen phosphorylase a activity (glycogen phosphorylase a; without the cleaning step): markedly stimulated

Nc1ncnc2c1ncn2[C@@H]1O[C@H](CO)[C@@H](O)[C@H]1O [adenosine]
effect on cAMP production (adenylate cyclase [2]): inhibited

Nc1nc2c(ncn2[C@@H]2O[C@H](COP(=O)(O)OP(=O)(O)NP(=O)(O)O)[C@@H](O)[C@H]2O)c(=O)[nH]1 [GppNHp, guanylyl-5'-imidodiphosphate]
Agonist-stimulated adenylate cyclase activity, fluorescent assay (adenylate cyclase [3]): 185.3 ± 13.7 pmoles of cAMP/mg/min
effect on cAMP production (adenylate cyclase [2]): increased production
Agonist-stimulated adenylate cyclase activity, radioactive assay (adenylate cyclase [4]): 64.9 ± 3.3 pmoles of cAMP/mg/min
